Test results published in US20120022143A1, “RNA Interference Mediated Inhibition of the Thymic Stromal Lymphopoietin (TSLP) Gene Expression Using Short Interfering Nucliec Acid (siNA)” (Merck Sharp & Dohme Corp, priority 2009, published 2012).
[invAb] = inverted abasic unit; d = 2'-deoxy (DNA); m = 2'-O-methyl; r = 2'-OH (RNA); f = 2'-fluoro

Columns and labels:
TSLP mRNA = assay: Initial screening: TSLP mRNA knock-down by RT-PCR (Taqman) after RNAiMax transfection of NHLF cells; assay type: cell-based; settings: 10 nM siNA, human NHLF cells, 24 hrs post-transfection, relative to non-targeting control, normalized to GAPDH; mean ± s.d. from 2 experiments
Protocol: (§1) All cells were obtained from ATCC (Manassas, Va.) unless otherwise indicated. Cells were grown and transfected under standard conditions, which are detailed below for each cell line.
NHLF (human; Lonza cat# CC-2512): Cells were cultured at 37° C. in the presence of 5% CO2 and grown Fibroblast Basal Medium (Lonza cat# CC-3β2) supplemented growth factors (provided with the kit) and 100 μg/mL of streptomycin and 100 U/mL penicillin.
(§2) All transfections were performed using RNAiMax (Invitrogen Cat# 13778-150) as per the manufacturer's instructions.
(§3) Both human and murine cell lines were transfected in the similar fashion. Cells were plated in all wells of a tissue-culture treated, 96-well plate at a final count of 5,000 cells/well in […], of appropriate culture media. Cells were cultured for 24 hours after plating at 37° C. in the presence of 5% CO2.
(§4) After 24 hours, complexes containing siNA and RNAiMax were created as follows: A solution of RNAiMax diluted 33-fold in OPTI-MEM was prepared. In parallel, solutions of the siNAs for testing were prepared to a final concentration of 120 nM in OPTI-MEM. After incubation of RNAiMax/OPTI-MEM solution at room temperature for 5 min, an equal volume of the siNA solution and the RNAiMax solution were added together for each of the siNAs.
(§5) This solution was incubated at room temperature for 20 minutes. After incubation, 20 uL of the solution was added to each of the relevant wells.
(§6) The final concentration of siNA in each well was 10 nM and the final volume of RNAiMax in each well was 0.3 ul.
(§7) The time of incubation with the RNAiMax-siNA complexes was 24 hours, unless otherwise indicated. There was no change in media between the transfection and harvesting of the cells unless otherwise indicated.
(§8) RNA was extracted from a 96-well plate using the TaqMan® Gene Expression Cells-to-CT™ Kit (Cat# 4399002) with a modified protocol. Briefly, a 60 uL (1 plate) or 110 uL (2 plates) of the Lysis Solution with DNase I was dispensed into each well of the Lysis Buffer Plate (twin.tec full skirt plate). The lysis buffer and stop plates were stored at 4° C. until the cells were washed.
(§9) The plate was spun at 1100 rpm for 5 minutes. The culture medium was aspirated and discarded from the wells of the culture plate. The lysis was performed automatically using a BioMek FX instrument and method. After the Biomek method was completed, the lysis plate was incubated for 2 min. at room temperature. The lysis plate can be stored for 2 hours at 4° C., or at −20° C. or −80° C. for two months.
(§10) Each well of the reverse transcription plate required 10 uL of 2× reverse transcriptase Buffer, luL of 20× reverse transcription enzyme and 2 uL of nuclease-free water. The reverse transcription master mix was prepared by mixing 2× reverse transcription buffer, 20× reverse transcription enzyme mix, and nuclease-free water. 13 uL of the reverse transcription master mix was dispensed into each well of the reverse transcription plate (semi-skirted). A separate reverse transcription plate was prepared for each cell plate. The plate was loaded onto a Biomek NX or Biomek FX Dual-96 and the Biomek method was run. The program is programmed to automatically added 7 uL of lysate from the cell lysis procedure described above into each well of the reverse transcription plate. The plate is sealed and spun on a centrifuge (1000 rpm for 30 seconds) to settle the contents to the bottom of the reverse transcription plate. The plate is placed in a thermocycler at 37° C. for 60 min, 95° C. for 5 min, and 4° C. until the plate is removed from the thermocycler. Upon removal, if not used immediately, the plate was frozen at −20° C.
A series of probes and primers were used to detect the various mRNA transcripts of the genes of TSLP, IL-8 and GAPDH in human cell lines. All the Taqman probes and primers for the experiments here-in described were supplied as pre-validated sets by Applied Biosystems, Inc. (see Table 2). […]

mTSLP mRNA = assay: Initial screening: mouse TSLP mRNA knock-down by RT-PCR (Taqman) after RNAiMax transfection of NIH 3T3 cells; assay type: cell-based; settings: 10 nM siNA, 24 hrs post-transfection, mean ± s.d., summary from 2 screens
Protocol: as §1
NIH 3T3 (murine; ATCC cat#CRL-1658): Cells were cultured at 37° C. in the presence of 5% CO2 and grown in Dulbecco's modified Eagle's medium (DMEM) with 4 mM L-glutamine adjusted to contain 1.5 g/L sodium bicarbonate and 4.5 g/L glucose and supplemented with fetal bovine serum at a final concentration of 10% and 100 μg/mL of streptomycin and 100 U/mL penicillin.
as §2, §3, §4, §5, §6, §7, §8, §9, §10
A series of probes and primers were used to detect the various mRNA transcripts of the genes of TSLP, IL-8 and GAPDH in human cell lines. […]

Substance | % KD TSLP (TSLP mRNA) | % KD mTSLP NIH3T3 (mTSLP mRNA)
25439-DC: siNA duplex: sense B cAcGuGGGAAuGcAcuGAu TTB (SEQ ID NO: 61), antisense AUCAGuGcAuucccAcGuGUU (SEQ ID NO: 62) (sense CACGUGGGAAUGCACUGAUTT; antisense AUCAGUGCAUUCCCACGUGUU; sense: DNA at AGT, 2'-fluoro at CU, [invAb] at 5' end, 3' end, backbone not given here; antisense: sugars from the 5' end rrrmmfrfmfffffmfmfrmm, backbone not given here) | 12 ± 36.7% | 16.8 ± 14.7%
25458-DC: siNA duplex: sense B GuAGAAAAAAAAAuuAAAA TTB (SEQ ID NO: 99), antisense UUUuAAuuuuuuuuucuAcUU (SEQ ID NO: 100) (sense GUAGAAAAAAAAAUUAAAATT; antisense UUUUAAUUUUUUUUUCUACUU; sense: sugars from the 5' end d1 f1 d11 f2 d6, [invAb] at 5' end, 3' end, backbone not given here; antisense: sugars from the 5' end rrrfmmfffffffffffmfmm, backbone not given here) | 45 ± 9.9% | 21.6 ± 0.5%
25447-DC: siNA duplex: sense B uuuGuGAAcAcuuuuGAAA TTB (SEQ ID NO: 77), antisense UUUcAAAAGuGuucAcAAAUU (SEQ ID NO: 78) (sense UUUGUGAACACUUUUGAAATT; antisense UUUCAAAAGUGUUCACAAAUU; sense: DNA at AGT, 2'-fluoro at CU, [invAb] at 5' end, 3' end, backbone not given here; antisense: sugars from the 5' end rrrfmmmmmfmfffmfmmmmm, backbone not given here) | 84 ± 4.6% | 18.5 ± 3.8%
25430-DC: siNA duplex: sense B cccuGAAAAAGGAAAAAuA TTB (SEQ ID NO: 43), antisense UAUuuuuccuuuuucAGGGUU (SEQ ID NO: 44) (sense CCCUGAAAAAGGAAAAAUATT; antisense UAUUUUUCCUUUUUCAGGGUU; inverted abasic caps, TT overhang, chemistry not fully specified) | 89 ± 4.5% | 30.4 ± 9.9%
25451-DC: siNA duplex: sense B uAAuuAcAGAAGAGuuucu TTB (SEQ ID NO: 85), antisense AGAAAcucuucuGuAAuuAUU (SEQ ID NO: 86) (sense UAAUUACAGAAGAGUUUCUTT; antisense AGAAACUCUUCUGUAAUUAUU; sense: DNA at AGT, 2'-fluoro at CU, [invAb] at 5' end, 3' end, backbone not given here; antisense: sugars from the 5' end rrrmmfffffffmfmmffmmm, backbone not given here) | 76 ± 16.4% | −37.4 ± 15.7%
25441-DC: siNA duplex: sense B GGucAGuuAuGucAAuGuu TTB (SEQ ID NO: 65), antisense AACAuuGAcAuAAcuGAccUU (SEQ ID NO: 66) (sense GGUCAGUUAUGUCAAUGUUTT; antisense AACAUUGACAUAACUGACCUU; sense: DNA at AGT, 2'-fluoro at CU, [invAb] at 5' end, 3' end, backbone not given here; antisense: sugars from the 5' end rrrmffmmfmfmmffmmffmm, backbone not given here) | 40 ± 16.2% | −13.4 ± 10^ %
25463-DC: siNA duplex: sense B cGAGuAuuAuAcucucAAu TTB (SEQ ID NO: 109), antisense AUUGAGAGuAuAAuAcucGUU (SEQ ID NO: 110) (sense CGAGUAUUAUACUCUCAAUTT; antisense AUUGAGAGUAUAAUACUCGUU; sense: DNA at AGT, 2'-fluoro at CU, [invAb] at 5' end, 3' end, backbone not given here; antisense: sugars from the 5' end rrrmmmmmfmfmmfmfffmmm, backbone not given here) | 19 ± 33.3% | 41.5 ± 1.4%
25461-DC: siNA duplex: sense B GGGcuAAcuuAcAAcuuuu TTB (SEQ ID NO: 105), antisense AAAAGuuGuAAGuuAGcccUU (SEQ ID NO: 106) (sense GGGCUAACUUACAACUUUUTT; antisense AAAAGUUGUAAGUUAGCCCUU; sense: DNA at AGT, 2'-fluoro at CU, [invAb] at 5' end, 3' end, backbone not given here; antisense: sugars from the 5' end rrrmmffmfmmmffmmfffmm, backbone not given here) | −48 ± 56.1% | −17.2 ± 3.6%
25432-DC: siNA duplex: sense B cuGAGGAAAAucAGGAcAu TTB (SEQ ID NO: 47), antisense AUGuccuGAuuuuccucAGUU (SEQ ID NO: 48) (sense CUGAGGAAAAUCAGGACAUTT; antisense AUGUCCUGAUUUUCCUCAGUU; sense: DNA at AGT, 2'-fluoro at CU, [invAb] at 5' end, 3' end, backbone not given here; antisense: sugars from the 5' end r3 f4 m2 f8 m4, backbone not given here) | 47 ± 26.2% | 37.1 ± 3.8%
25456-DC: siNA duplex: sense B uccuGAAAAucGAGuAuuA TTB (SEQ ID NO: 95), antisense UAAuAcucGAuuuucAGGAUU (SEQ ID NO: 96) (sense UCCUGAAAAUCGAGUAUUATT; antisense UAAUACUCGAUUUUCAGGAUU; sense: DNA at AGT, 2'-fluoro at CU, [invAb] at 5' end, 3' end, backbone not given here; antisense: sugars from the 5' end rrrfmfffmmfffffmmmmmm, backbone not given here) | 23 ± 1.1% | 53.3 ± 0.3%
25466-DC: siNA duplex: sense B cAGAAGGGAuucuuAAcuu TTB (SEQ ID NO: 115), antisense AAGuuAAGAAucccuucuGUU (SEQ ID NO: 116) (sense CAGAAGGGAUUCUUAACUUTT; antisense AAGUUAAGAAUCCCUUCUGUU; sense: DNA at AGT, 2'-fluoro at CU, [invAb] at 5' end, 3' end, backbone not given here; antisense: sugars from the 5' end r3 f2 m5 f8 m3, backbone not given here) | 38 ± 25^ % | −17.8 ± 28.5%
25442-DC: siNA duplex: sense B GGcAAGAGAuuGcAucAuA TTB (SEQ ID NO: 67), antisense UAUGAuGcAAucucuuGccUU (SEQ ID NO: 68) (sense GGCAAGAGAUUGCAUCAUATT; antisense UAUGAUGCAAUCUCUUGCCUU; sense: DNA at AGT, 2'-fluoro at CU, [invAb] at 5' end, 3' end, backbone not given here; antisense: sugars from the 5' end rrrmmfmfmmffffffmffmm, backbone not given here) | 12 ± 27^ % | −70.9 ± 6.4%
